Experiment: In vitro rat liver S9 stability assay (formation of tafamidis)
Format: in vitro ADME
Conditions: rat liver S9, 1 μM test compound, 37° C.
Procedure: A stability assay in liver S9 (rat or human) was used to evaluate the ability of a compound provided herein to convert to an active TTR stabilizer. The test compound was added to liver S9 and incubated at 37° C. in a water bath at a concentration of 1 μM. At each time point (0, 5, 10, 20, 30 and 60 min), stop solution (tolbutamide plus labetalol) was added to precipitate protein and mixed thoroughly. After centrifugation, an aliquot of supernatant was analyzed by LC-MS/MS. The percentage of formation of active agent was calculated at each time point.
With `CN1CCC(NC(=O)c2ccc3nc(-c4cc(Cl)cc(Cl)c4)oc3c2)C1` (centres unmarked) [Compound 21, 2-(3,5-dichlorophenyl)-N-(1-methylpyrrolidin-3-yl)benzo[d]oxazole-6-carboxamide] the “Formation of tafamidis at 60 min” value was “A (A is <25%)”.
With `O=C(NC1CCN(CCF)C1)c1ccc2nc(-c3cc(Cl)cc(Cl)c3)oc2c1` (centres unmarked) [Compound 22, 2-(3,5-dichlorophenyl)-N-(1-(2-fluoroethyl)pyrrolidin-3-yl)benzo[d]oxazole-6-carboxamide] the “Formation of tafamidis at 60 min” value was “A (A is <25%)”.
For `O=C(NC1CCN(CC(F)F)C1)c1ccc2nc(-c3cc(Cl)cc(Cl)c3)oc2c1` (centres unmarked) [Compound 23, 2-(3,5-dichlorophenyl)-N-(1-(2,2-difluoroethyl)pyrrolidin-3-yl)benzo[d]oxazole-6-carboxamide], the “Formation of tafamidis at 60 min” value was “A (A is <25%)”.
In the case of `O=C(NC1CCN(CC(F)(F)F)C1)c1ccc2nc(-c3cc(Cl)cc(Cl)c3)oc2c1` (centres unmarked) [Compound 24, 2-(3,5-dichlorophenyl)-N-(1-(2,2,2-trifluoroethyl)pyrrolidin-3-yl)benzo[d]oxazole-6-carboxamide], the “Formation of tafamidis at 60 min” value is reported as “A (A is <25%)”.
In the case of `O=C(N[C@H]1C[C@H](O)C1)c1ccc2nc(-c3cc(Cl)cc(Cl)c3)oc2c1` [Compound 26, 2-(3,5-dichlorophenyl)-N-((trans)-3-hydroxycyclobutyl)-benzo[d]oxazole-6-carboxamide], the “Formation of tafamidis at 60 min” value is reported as “A (A is <25%)”.
In the case of `O=C(N[C@H]1C[C@@H](O)C1)c1ccc2nc(-c3cc(Cl)cc(Cl)c3)oc2c1` [Compound 27, 2-(3,5-dichlorophenyl)-N-((Cis)-3-hydroxycyclobutyl)benzo-[d]oxazole-6-carboxamide], the “Formation of tafamidis at 60 min” value is reported as “A (A is <25%)”.
For `O=C(OCCc1ccn[nH]1)c1ccc2nc(-c3cc(Cl)cc(Cl)c3)oc2c1` [Compound 36, 2-(1H-pyrazol-5-yl) ethyl 2-(3,5-dichlorophenyl)benzo[d]oxazole-6-carboxylate], the “Formation of tafamidis at 60 min” value was “D (D is ≥75%)”.
In the case of `CCC(Cc1ncc[nH]1)OC(=O)c1ccc2nc(-c3cc(Cl)cc(Cl)c3)oc2c1` (centres unmarked) [Compound 37, 1-(1H-imidazol-2-yl) butan-2-yl 2-(3,5-dichlorophenyl)benzo-[d]oxazole-6-carboxylate], the “Formation of tafamidis at 60 min” value is reported as “A (A is <25%)”.
In the case of `CC(Cc1ccn[nH]1)OC(=O)c1ccc2nc(-c3cc(Cl)cc(Cl)c3)oc2c1` (centres unmarked) [Compound 38, 1-(1H-pyrazol-5-yl)propan-2-yl 2-(3,5-dichlorophenyl) benzo[d]oxazole-6-carboxylate], the “Formation of tafamidis at 60 min” value is reported as “B (B is ≥25 to <50%)”.
With `O=C(OCCCO)c1ccc2nc(-c3cc(Cl)cc(Cl)c3)oc2c1` [Compound 40, 3-hydroxypropyl 2-(3,5-dichlorophenyl)benzo[d]oxazole-6-carboxylate] the “Formation of tafamidis at 60 min” value was “B (B is ≥25 to <50%)”.
With `CC(CCO)OC(=O)c1ccc2nc(-c3cc(Cl)cc(Cl)c3)oc2c1` (centres unmarked) [Compound 41, 4-hydroxybutan-2-yl 2-(3,5-dichlorophenyl) benzo [d] oxazole-6-carboxylate] the “Formation of tafamidis at 60 min” value was “C (C is ≥50 to <75%)”.
With `CC(N1CCC(OC(=O)c2ccc3nc(-c4cc(Cl)cc(Cl)c4)oc3c2)C1)C(F)(F)F` (centres unmarked) [Compound 45, 1-(1,1,1-trifluoropropan-2-yl)pyrrolidin-3-yl 2-(3,5-dichlorophenyl)benzo[d]oxazole-6-carboxylate] the “Formation of tafamidis at 60 min” value was “B (B is ≥25 to <50%)”.
With `CC1(C)CCC(OC(=O)c2ccc3nc(-c4cc(Cl)cc(Cl)c4)oc3c2)C1` (centres unmarked) [Compound 48, 3,3-dimethylcyclopentyl 2-(3,5-dichlorophenyl)benzo[d]oxazole-6-carboxylate] the “Formation of tafamidis at 60 min” value was “B (B is ≥25 to <50%)”.
In the case of `O=C(OC1CCN(c2cccnc2)C1)c1ccc2nc(-c3cc(Cl)cc(Cl)c3)oc2c1` (centres unmarked) [Compound 49, 1-(pyridin-3-yl)pyrrolidin-3-yl 2-(3,5-dichlorophenyl)benzo-[d]oxazole-6-carboxylate], the “Formation of tafamidis at 60 min” value is reported as “B (B is ≥25 to <50%)”.
